The target of experiment [1] is T1, MAT (malonyl-/acetyl transferase domain of murine FAS) (Mus musculus, UniProt P19096).
T1 sequence (P19096 488-816 limits assumed): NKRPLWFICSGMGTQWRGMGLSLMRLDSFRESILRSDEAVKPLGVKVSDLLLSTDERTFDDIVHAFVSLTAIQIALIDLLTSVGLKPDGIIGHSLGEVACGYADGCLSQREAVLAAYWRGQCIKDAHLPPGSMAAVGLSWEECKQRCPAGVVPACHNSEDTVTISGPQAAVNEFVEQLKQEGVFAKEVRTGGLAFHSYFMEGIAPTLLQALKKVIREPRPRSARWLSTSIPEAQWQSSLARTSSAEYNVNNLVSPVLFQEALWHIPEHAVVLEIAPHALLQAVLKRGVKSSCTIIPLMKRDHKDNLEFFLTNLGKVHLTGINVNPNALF
The experiment in a line: enzyme-coupled fluorometric transacylation assay. The experiment is classed as biochemical. The conditions noted are these: individual domains; acceptor DEBS ACP6 presumed.

Another experiment has as its target DEBS M6+TE (WT) (Saccharopolyspora erythraea, UniProt Q03133). The experiment can be described thus: NADPH consumption assay. The experiment is classed as biochemical. The following applies: 400 mM phosphate pH 7.2, 25 °C.
The target in experiment [2] is DEBS module 6 including its C-terminal TE domain (DEBS M6+TE), wildtype (Saccharopolyspora erythraea). The experiment in a line: SEC. Background: Size exclusion chromatography separates by hydrodynamic size, large species first.

Sequence of DEBS M6+TE (WT) (Q03133 1470-3172 limits assumed): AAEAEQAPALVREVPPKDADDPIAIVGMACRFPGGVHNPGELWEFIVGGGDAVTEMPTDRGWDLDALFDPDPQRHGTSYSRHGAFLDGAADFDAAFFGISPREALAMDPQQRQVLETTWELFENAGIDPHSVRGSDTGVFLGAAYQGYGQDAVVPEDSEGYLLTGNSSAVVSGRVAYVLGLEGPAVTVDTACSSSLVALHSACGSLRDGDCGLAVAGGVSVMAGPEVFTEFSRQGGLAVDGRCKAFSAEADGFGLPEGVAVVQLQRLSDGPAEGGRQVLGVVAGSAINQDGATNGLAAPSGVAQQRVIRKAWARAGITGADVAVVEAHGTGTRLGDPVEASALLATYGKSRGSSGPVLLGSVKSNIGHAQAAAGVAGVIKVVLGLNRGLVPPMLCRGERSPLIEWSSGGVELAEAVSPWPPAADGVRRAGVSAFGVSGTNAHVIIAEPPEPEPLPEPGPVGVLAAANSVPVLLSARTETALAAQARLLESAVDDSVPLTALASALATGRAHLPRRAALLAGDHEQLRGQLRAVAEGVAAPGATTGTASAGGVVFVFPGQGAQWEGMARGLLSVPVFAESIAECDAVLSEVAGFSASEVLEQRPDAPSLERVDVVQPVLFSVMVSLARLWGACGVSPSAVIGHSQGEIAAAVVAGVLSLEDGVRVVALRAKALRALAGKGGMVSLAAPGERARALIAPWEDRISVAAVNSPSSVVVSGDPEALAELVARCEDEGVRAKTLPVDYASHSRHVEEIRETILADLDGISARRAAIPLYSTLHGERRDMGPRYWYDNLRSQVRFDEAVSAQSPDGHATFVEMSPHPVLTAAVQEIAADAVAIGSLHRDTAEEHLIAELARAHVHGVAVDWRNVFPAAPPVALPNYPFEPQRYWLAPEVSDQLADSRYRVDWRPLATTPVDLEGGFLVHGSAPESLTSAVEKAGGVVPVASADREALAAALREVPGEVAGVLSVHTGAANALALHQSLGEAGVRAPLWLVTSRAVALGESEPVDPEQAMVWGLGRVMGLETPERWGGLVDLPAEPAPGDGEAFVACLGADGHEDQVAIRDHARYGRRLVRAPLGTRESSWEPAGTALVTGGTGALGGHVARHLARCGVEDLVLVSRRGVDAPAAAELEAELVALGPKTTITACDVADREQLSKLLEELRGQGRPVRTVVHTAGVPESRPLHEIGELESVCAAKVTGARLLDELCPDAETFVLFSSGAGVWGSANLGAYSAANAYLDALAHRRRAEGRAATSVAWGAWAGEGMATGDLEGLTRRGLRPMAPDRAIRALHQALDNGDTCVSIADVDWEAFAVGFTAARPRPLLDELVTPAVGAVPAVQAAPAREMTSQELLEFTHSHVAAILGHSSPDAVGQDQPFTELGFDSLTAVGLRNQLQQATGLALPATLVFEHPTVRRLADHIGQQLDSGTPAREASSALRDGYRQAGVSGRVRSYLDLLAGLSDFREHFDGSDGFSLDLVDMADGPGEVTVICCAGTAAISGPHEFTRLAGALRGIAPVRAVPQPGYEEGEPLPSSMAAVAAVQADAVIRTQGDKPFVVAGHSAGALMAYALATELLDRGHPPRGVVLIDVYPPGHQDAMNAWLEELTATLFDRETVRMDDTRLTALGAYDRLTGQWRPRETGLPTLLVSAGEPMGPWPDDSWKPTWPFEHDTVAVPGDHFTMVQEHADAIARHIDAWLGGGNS
Sequence of DEBS module 6 including its C-terminal TE domain (DEBS M6+TE), wildtype (domain or fragment) (Q03133 2-3172): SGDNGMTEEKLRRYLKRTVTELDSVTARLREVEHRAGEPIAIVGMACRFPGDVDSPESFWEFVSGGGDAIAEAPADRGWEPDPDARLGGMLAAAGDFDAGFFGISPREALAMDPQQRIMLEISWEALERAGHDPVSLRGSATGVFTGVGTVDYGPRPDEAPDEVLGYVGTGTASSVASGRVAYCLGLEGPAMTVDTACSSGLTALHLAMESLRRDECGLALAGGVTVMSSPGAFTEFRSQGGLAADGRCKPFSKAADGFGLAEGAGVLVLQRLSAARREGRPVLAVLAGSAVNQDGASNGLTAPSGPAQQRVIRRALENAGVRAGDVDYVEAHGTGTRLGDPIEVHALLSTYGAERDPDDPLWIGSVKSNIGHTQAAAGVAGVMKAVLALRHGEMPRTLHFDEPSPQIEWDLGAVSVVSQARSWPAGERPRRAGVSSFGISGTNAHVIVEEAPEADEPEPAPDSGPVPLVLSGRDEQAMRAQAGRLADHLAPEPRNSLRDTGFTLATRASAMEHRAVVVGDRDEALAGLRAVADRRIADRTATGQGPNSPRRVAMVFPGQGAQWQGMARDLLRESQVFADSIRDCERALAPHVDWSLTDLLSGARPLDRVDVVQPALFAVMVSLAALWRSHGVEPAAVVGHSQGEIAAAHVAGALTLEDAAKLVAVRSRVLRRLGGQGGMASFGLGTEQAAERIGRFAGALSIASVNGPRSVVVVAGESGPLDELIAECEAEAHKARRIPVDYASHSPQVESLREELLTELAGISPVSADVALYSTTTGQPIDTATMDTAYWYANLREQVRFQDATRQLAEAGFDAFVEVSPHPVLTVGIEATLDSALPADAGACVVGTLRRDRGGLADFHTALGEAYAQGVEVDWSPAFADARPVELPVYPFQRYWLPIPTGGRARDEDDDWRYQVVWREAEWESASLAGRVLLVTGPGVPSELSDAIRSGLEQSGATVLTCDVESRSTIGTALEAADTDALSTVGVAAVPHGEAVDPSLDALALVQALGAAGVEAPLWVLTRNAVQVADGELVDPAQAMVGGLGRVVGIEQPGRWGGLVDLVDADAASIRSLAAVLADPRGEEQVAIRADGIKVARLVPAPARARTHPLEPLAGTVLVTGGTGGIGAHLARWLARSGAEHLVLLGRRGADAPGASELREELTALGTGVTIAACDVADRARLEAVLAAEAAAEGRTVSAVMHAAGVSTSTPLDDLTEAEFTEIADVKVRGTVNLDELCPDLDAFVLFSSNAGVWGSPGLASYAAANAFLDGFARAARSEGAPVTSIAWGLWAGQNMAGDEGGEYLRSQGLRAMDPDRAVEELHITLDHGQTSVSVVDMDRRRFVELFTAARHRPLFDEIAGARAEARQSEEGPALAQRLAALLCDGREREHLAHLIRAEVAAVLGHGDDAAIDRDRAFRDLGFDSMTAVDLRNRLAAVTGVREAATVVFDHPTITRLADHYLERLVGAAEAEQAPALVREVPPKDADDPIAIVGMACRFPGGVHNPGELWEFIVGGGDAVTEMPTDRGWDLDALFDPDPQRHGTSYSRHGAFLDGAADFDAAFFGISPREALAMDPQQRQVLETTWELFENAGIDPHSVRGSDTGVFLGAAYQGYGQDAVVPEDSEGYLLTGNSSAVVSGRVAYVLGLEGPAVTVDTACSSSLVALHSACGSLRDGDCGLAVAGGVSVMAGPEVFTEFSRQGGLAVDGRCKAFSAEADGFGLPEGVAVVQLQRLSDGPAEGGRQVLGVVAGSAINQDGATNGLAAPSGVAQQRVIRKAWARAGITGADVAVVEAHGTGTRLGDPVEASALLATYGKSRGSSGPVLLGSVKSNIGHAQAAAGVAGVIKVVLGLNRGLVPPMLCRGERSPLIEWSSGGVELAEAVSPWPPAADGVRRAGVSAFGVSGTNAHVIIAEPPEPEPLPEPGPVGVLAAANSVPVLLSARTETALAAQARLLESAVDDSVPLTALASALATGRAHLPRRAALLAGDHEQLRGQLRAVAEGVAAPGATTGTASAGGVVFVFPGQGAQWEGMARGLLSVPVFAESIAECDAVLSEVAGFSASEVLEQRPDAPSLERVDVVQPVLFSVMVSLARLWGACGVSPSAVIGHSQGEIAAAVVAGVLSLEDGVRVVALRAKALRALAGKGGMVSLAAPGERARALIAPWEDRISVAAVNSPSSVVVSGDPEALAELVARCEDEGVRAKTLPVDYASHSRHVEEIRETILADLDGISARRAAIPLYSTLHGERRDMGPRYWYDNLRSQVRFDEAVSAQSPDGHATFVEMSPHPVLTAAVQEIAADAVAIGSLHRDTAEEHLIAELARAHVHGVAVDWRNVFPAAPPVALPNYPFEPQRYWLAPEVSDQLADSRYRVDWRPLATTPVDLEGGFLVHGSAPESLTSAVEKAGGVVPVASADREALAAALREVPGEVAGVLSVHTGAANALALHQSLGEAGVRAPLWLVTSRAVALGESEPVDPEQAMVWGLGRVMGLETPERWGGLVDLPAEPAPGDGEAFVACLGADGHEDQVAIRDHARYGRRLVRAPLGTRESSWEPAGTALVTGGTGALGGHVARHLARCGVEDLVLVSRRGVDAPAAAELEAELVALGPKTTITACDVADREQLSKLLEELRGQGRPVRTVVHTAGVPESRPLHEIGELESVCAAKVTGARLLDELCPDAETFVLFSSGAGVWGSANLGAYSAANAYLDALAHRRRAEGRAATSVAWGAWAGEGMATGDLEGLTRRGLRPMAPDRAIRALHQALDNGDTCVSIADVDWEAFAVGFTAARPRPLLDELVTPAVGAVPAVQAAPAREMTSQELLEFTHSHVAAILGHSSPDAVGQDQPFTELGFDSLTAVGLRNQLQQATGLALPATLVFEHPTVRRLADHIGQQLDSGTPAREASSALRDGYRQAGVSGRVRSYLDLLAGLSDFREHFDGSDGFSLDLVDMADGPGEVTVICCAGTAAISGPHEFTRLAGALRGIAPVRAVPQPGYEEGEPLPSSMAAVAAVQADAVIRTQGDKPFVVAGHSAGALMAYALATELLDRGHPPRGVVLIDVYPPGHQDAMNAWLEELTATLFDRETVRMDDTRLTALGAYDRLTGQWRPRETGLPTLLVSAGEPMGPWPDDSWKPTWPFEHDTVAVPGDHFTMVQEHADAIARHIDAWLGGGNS

As for `CC(C)(COP(=O)(O)OP(=O)(O)OC[C@H]1O[C@@H](n2cnc3c(N)ncnc32)[C@H](O)[C@@H]1OP(=O)(O)O)[C@@H](O)C(=O)NCCC(=O)NCCSC(=O)C(F)C(=O)O` (mixture of isomers) [compound 1, F-Mal-CoA], the Km entry in experiment [1] is “we observed excellent transfer kinetics of MAT for F-Mal-CoA”. As to `CC(F)(C(=O)O)C(=O)SCCNC(=O)CCNC(=O)[C@H](O)C(C)(C)COP(=O)(O)OP(=O)(O)OC[C@H]1O[C@@H](n2cnc3c(N)ncnc32)[C@H](O)[C@@H]1OP(=O)(O)O` (mixture of isomers) [compound 17, F-MM-CoA], the Km entry in experiment [1] is recorded as “the MAT showed excellent transfer kinetics for F-MM-CoA”. On to `CC(C(=O)O)C(=O)SCCNC(=O)CCNC(=O)[C@H](O)C(C)(C)COP(=O)(O)OP(=O)(O)OC[C@H]1O[C@@H](n2cnc3c(N)ncnc32)[C@H](O)[C@@H]1OP(=O)(O)O` (some centres unmarked) [MM-CoA], for which, on DEBS M6+TE (WT) (diketide 2, NADPH), the turnover rate result was “Turnover rates for the WT-, H1- and H2-mediated formation of TKLs”.

As for `CC[C@@H](O)[C@H](C)C(=O)SCCNC(C)=O` [compound 2, (2S,3R)-2-methyl-3-hydroxypentanoyl-N-acetylcysteamine thioester], at DEBS M6+TE (WT) (MM-CoA, NADPH), the turnover rate entry was “Turnover rates for the WT-, H1- and H2-mediated formation of TKLs”. Broadly, the stoichiometry N is the number of molecules, sites or subunits per partner or assembly. “DEBS module 6 including its C-terminal TE domain (DEBS M6+TE), wildtype (domain or fragment)” gave a stoichiometry N in experiment [2] of 2.
